Converted amounts (≈) assume the structure as drawn. Like-named read-outs stand apart in the source and are kept apart here.
Tests used:
Assay in all cases: Antibacterial activity, minimum inhibition concentration (MIC)
Assay type in all cases: cell-based
[1] = test system: Salmonella typhimurium IID-971; settings: for MIC: Salmonella enterica, read-out: minimum inhibition concentration (MIC)
Experimental: (§1) Antibacterial activities of the compounds according to this invention, which had been prepared in the preceding Examples, were measured according to the method prescribed by The Committee of Amendment of "The method for measurement of the minimum inhibition concentration", The Chemotherapy Association, Japan (See Chemotherapy, Vol. 29, No. 1, pp. 76 ~ 79 (1981)).
(§2) The test results are shown in terms of the minimum inhibition concentration (MIC) (unit: µg/mℓ) in the following Tables 1 to 4.

[2] = test system: Staphylococcus aureus MS 353; settings: for MIC: Staphylococcus aureus; for minimum inhibition concentration (MIC): Table 1
Experimental: as §1, §2

[3] = test system: Proteus morganii IFO 3848; settings: for MIC: Morganella morganii; for minimum inhibition concentration (MIC): Table 1
Experimental: as §1, §2

[4] = Table 1, Salmonella typhimurium IID-971
[5] = MS353, Table 1, Staphylococcus aureus MS 353, read-out: minimum inhibition concentration (MIC)
[6] = IFO3848, Table 1, Proteus morganii IFO 3848, read-out: minimum inhibition concentration (MIC)

SMILES	MIC [1, 4]	MIC [2, 5]	MIC [3, 6]	other results
CCSC=C(C(=O)NC1C(=O)N2C(C(=O)O)=C(CSc3nnnn3C)CSC12)c1csc(N)n1 (stereo not drawn) [Example 10, sodium 7-[2-ethylmercaptomethylene-2-(2-aminothiazol-4-yl)acetamido]-3-(l-methyl-lH-tetrazol-5-yl)thiomethyl-3-cephem-4-carboxylate]	≤ 0.006 µg/mL	1.56 µg/mL	≤ 0.006 µg/mL	–
Cn1nnnc1SCC1=C(C(=O)O)N2C(=O)C(NC(=O)C(=CC#N)c3csc(NC=O)n3)[C@H]2SC1 (single isomer, unassigned) [Example 15, 7-[2-Cyanomethylene-2-(2-formylaminothiazol-4-yl)acetamido]-3-(1-methyl-1H-tetrazol-5-yl)thiomethyl-3-cephem-4-carboxylic acid]	–	–	–	minimum inhibition concentration (MIC) [1, 4]: 0.05 µg/mL (≈ 0.0937 µM); minimum inhibition concentration (MIC) ([2]; Staphylococcus aureus MS 353): 1.56 µg/mL (≈ 2.92 µM); minimum inhibition concentration (MIC) ([3]; Proteus morganii IFO 3848): 0.39 µg/mL (≈ 0.731 µM)
COC(=N)C=C(C(=O)NC1C(=O)N2C(C(=O)O)=C(CSc3nnnn3C)CSC12)c1csc(N)n1 (single isomer, unassigned) [Example 17, 7-[2-(o-methylcarboxyimidoylmethylene)-2-(2-aminothiazol-4-yl)acetamido]-3-(1-methyl-1H-tetrazol-5-yl)thiomethyl-3-cephem-4-carboxylic acid]	0.0125 µg/mL (≈ 0.0233 µM)	3.12 µg/mL (≈ 5.81 µM)	≤ 0.006 µg/mL	–
Cn1nnnc1SCC1=C(C(=O)O)N2C(=O)C(NC(=O)C(=CCl)c3ccccc3)C2SC1 (single isomer, unassigned) [Example 6, 7-(2-chloromethylenephenylacetamido)-3-(l-methyl-lH-tetrazol-5-yl)thiomethyl-3-cephem-4-carboxylic acid]	–	–	–	minimum inhibition concentration (MIC) [1, 4]: 1.56 µg/mL (≈ 3.16 µM); minimum inhibition concentration (MIC) ([2]; Staphylococcus aureus MS 353): 0.78 µg/mL (≈ 1.58 µM); minimum inhibition concentration (MIC) ([3]; Proteus morganii IFO 3848): 6.25 µg/mL (≈ 12.7 µM)
CC1=C(C(=O)O)N2C(=O)C(NC(=O)C(=CCl)c3csc(N)n3)C2SC1 (single isomer, unassigned) [Example 2, sodium 7-[2-chloromethylene-2-(2-aminothiazol-4-yl)acetamido]desacetoxy-cephalosporanate]	0.0125 µg/mL	6.25 µg/mL	0.0125 µg/mL	–
Cl.Cn1nnnc1SCC1=C(C(=O)O)N2C(=O)C(NC(=O)C(=CC#N)c3csc(N)n3)[C@H]2SC1 (single isomer, unassigned) [Example 14, 7-[2-Cyanomethylene-2-(2-aminothiazol-4-yl)acetamido]-3-(1-methyl-1H-tetrazol-5-yl)thiomethyl-3-cephem-4-carboxylic acid hydrochloride salt]	0.39 µg/mL	100 µg/mL	0.39 µg/mL	–
Cn1nnnc1SCC1=C(C(=O)O)N2C(=O)C(NC(=O)C(=CC#N)c3csc(NC=O)n3)[C@H]2SC1 (single isomer, unassigned) [Example 13, 7-[2-Cyanomethylene-2-(2-formylaminothiazol-4-yl)acetamido]-3-(1-methyl-1H-tetrazol-5-yl)thiomethyl-3-cephem-4-carboxylic acid]	–	–	–	minimum inhibition concentration (MIC) [1, 4]: 25 µg/mL (≈ 46.9 µM); minimum inhibition concentration (MIC) ([2]; Staphylococcus aureus MS 353): 50 µg/mL (≈ 93.7 µM); minimum inhibition concentration (MIC) ([3]; Proteus morganii IFO 3848): 50 µg/mL (≈ 93.7 µM)
Cc1nnc(SCC2=C(C(=O)O)N3C(=O)C(NC(=O)C(=CCl)c4csc(N)n4)C3SC2)s1 (single isomer, unassigned) [Example 1, sodium 7-[2-chloromethylene-2-(2-aminothiazol-4-yl)acetamido]-3-(2-methyl-l,3,4-thiadiazol-5-yl)thiomethyl-3-cephem-4-carboxylate]	≤ 0.006 µg/mL	0.1 µg/mL	≤ 0.006 µg/mL	–
CC(=O)OCC1=C(C(=O)O)N2C(=O)C(NC(=O)C(=CCl)c3cnc(N)s3)C2SC1 (stereo not shown) [Example 8, sodium 7-[2-chloromethylene-2-(2-aminothiazol-5-yl)acetamido]-cephalosporanate]	25 µg/mL	0.78 µg/mL	–	–
Cn1nnnc1SCC1=C(C(=O)O)N2C(=O)C(NC(=O)C(=CCl)c3ccccc3)C2SC1 (single isomer, unassigned) [Example 5, 7-(2-chloromethylenephenylacetamido)-3-(1-methyl-lH-tetrazol-5-yl)thiomethyl-3-cephem-4-carboxylic acid]	0.78 µg/mL (≈ 1.58 µM)	–	–	minimum inhibition concentration (MIC) ([2]; Staphylococcus aureus MS 353): 0.05 µg/mL (≈ 0.101 µM); minimum inhibition concentration (MIC) ([3]; Proteus morganii IFO 3848): 0.78 µg/mL (≈ 1.58 µM)
Nc1nc(C(=CCl)C(=O)NC2C(=O)N3C(C(=O)[O-])=C(CSc4nncs4)CS[C@H]23)cs1.[Na+] (single isomer, unassigned) [Example 3, sodium 7-[2-chloromethylene-2-(2-aminothiazol-4-yl)acetamido]-3-(1,3,4-thiadiazol-5-yl)thiomethyl-3-cephem-4-carboxylate]	–	–	–	MIC [1]: ≤ 0.006 µg/mL; MIC ([2]; MS353, read-out: minimum inhibition concentration (MIC)): 0.1 µg/mL; MIC ([3]; IFO3848, read-out: minimum inhibition concentration (MIC)): ≤ 0.006 µg/mL
Cn1nnnc1SCC1=C(C(=O)O)N2C(=O)C(NC(=O)C(=CC(N)=O)c3csc(N)n3)C2SC1 (single isomer, unassigned) [Example 18, 7-[2-Carbamoylmethylene-2-(2-aminothiazol-4-yl)acetamido]-3-(1-methyl-lH-tetrazol-5-yl)thiomethyl-3-cephem-4-carboxylic acid]	0.1 µg/mL (≈ 0.191 µM)	12.5 µg/mL (≈ 23.9 µM)	≤ 0.006 µg/mL	–
Nc1nc(C(=CCl)C(=O)NC2C(=O)N3C(C(=O)O)=C(CSc4nnnn4CC(=O)O)CS[C@H]23)cs1 (single isomer, unassigned) [Example 19, 7-[2-Chloromethylene-2-(2-aminothiazol-4-yl)acetamido]-3-(1-carboxymethyl-1H-tetrazol-5-yl)thiomethyl-3-cephem-4-carboxylic acid]	≤ 0.006 µg/mL	1.56 µg/mL (≈ 2.79 µM)	≤ 0.006 µg/mL	–
Cn1nnnc1SCC1=C(C(=O)O)N2C(=O)C(NC(=O)C(=CCl)Sc3cnc(N)s3)C2SC1 (stereo not shown) [Example 9, sodium 7-[2-chloromethylene-3-(2-aminothiazol-5-yl)mercaptoacetamido]-3-(1-methyl-1H-tetrazol-5-yl)thiomethyl-3-cephem-4-carboxylate]	25 µg/mL	3.12 µg/mL	–	–
CSc1nnc(SCC2=C(C(=O)O)N3C(=O)C(NC(=O)C(=CCl)c4csc(N)n4)C3SC2)s1 (single isomer, unassigned) [Example 20, 7-[2-chloromethylene-2-(2-aminothiazol-4-yl)acetamido]-3-(2-methylthio-l,3,4-thiadiazol-5-yl)thiomethyl-3-cephem-4-carboxylic acid]	≤ 0.006 µg/mL	0.1 µg/mL (≈ 0.178 µM)	≤ 0.006 µg/mL	–
CCSC=C(C(=O)NC1C(=O)N2C(C(=O)O)=C(CSc3nnnn3C)CSC12)c1csc(N)n1 (stereo not drawn) [Example 11, 7-[2-ethylmercaptomethylene-2-(2-aminothiazol-4-yl)-acetamido]-3-(l-methyl-lH-tetrazol-5-yl)thiomethyl-3-cephem-4-carboxylic acid]	–	–	–	minimum inhibition concentration (MIC) [1, 4]: ≤ 0.006 µg/mL; minimum inhibition concentration (MIC) ([2]; Staphylococcus aureus MS 353): 0.78 µg/mL (≈ 1.44 µM); minimum inhibition concentration (MIC) ([3]; Proteus morganii IFO 3848): ≤ 0.006 µg/mL
CSC=C(C(=O)NC1C(=O)N2C(C(=O)O)=C(CSc3nnnn3C)CSC12)c1csc(N)n1 (stereo not drawn) [Example 12, 7-[2-Methylmercaptomethylene-2-(2-aminothiazol-4-yl)-acetamido]-3-(l-methyl-lH-tetrazol-5-yl)thiomethyl-3-cephem-4-carboxylic acid]	≤ 0.006 µg/mL	1.56 µg/mL (≈ 2.96 µM)	≤ 0.006 µg/mL	–
